The conditions of data set [1]: human, in vivo.
Data set [2] concerns BetaCoV/Belgium/GHB-03021/2020. The note with it: cited from earlier work.
A further data set relates to WA1. More on the design: method as in Pitts et al[4]. The note with it: A549-ACE2-TMPRSS, Nucleoprotein ELISA, ref Pitts et al[4]; cited from earlier work.
Another data set deals with Delta. The note with it: A549-ACE2-TMPRSS, Nucleoprotein ELISA, ref Pitts et al[4]; cited from earlier work.
In another data set the test system is Omicron. The note with it: A549-ACE2-TMPRSS, Nucleoprotein ELISA, ref Pitts et al[4]; cited from earlier work.
The subject of another data set is Omicron/BA.2. The arrangement: method as in Takashita et al[5]. Particulars: Vero E6, Focus reduction, ref Takashita et al[5]; cited from earlier work.
The nature of a further data set: clinical. Particulars: human, in vivo.
Another data set concerns plasma protein. Particulars: cited from earlier work.
The conditions of data set [3]: plasma samples; cited from earlier work.
In data set [4] the test system is nCoV-2019BetaCoV/Wuhan/WIV04/2019. The note with it: cited from earlier work.
The subject of data set [5] is BetaCoV/France/IDF0571/2020. Particulars: cited from earlier work.
The conditions of data set [6]: human, in vivo; cited from earlier work.

Like-named read-outs stand apart in the source and are kept apart here.

As for `N#C[C@@]1(c2ccc3c(N)ncnn23)O[C@H](CO)[C@@H](O)[C@H]1O` [GS-441524], in data set [1], the “Age effect on V, bootstrap median” value is listed as “–1.18”; the “Age effect on V, final model mean” value was “–1.15”; the “V/fm, bootstrap median” value is reported as 429 L; the “V/fm, final model mean” value was determined as 429 L. In addition, in data set [1], the “eGFR effect on CL, bootstrap median” value is on record as 1.23 and the “eGFR effect on CL, final model mean” value was 1.12. The EC50 in [2] is 510 nM. Further, in the data set with WA1, the EC50 is 5600 nM. In the data set on Delta, the EC50 was 3260 nM. For the same compound, the EC50 with Omicron was 3150 nM. Moreover, the EC50 in the data set with Omicron/BA.2 is 2850 nM. Further, the clearance in “clinical” (CL/fm, bootstrap median) was 267 mL/min. Besides, the clearance in the data set “clinical” (CL/fm, final model mean) was 265 mL/min. Besides, the protein binding with plasma protein is reported as 2%. Moreover, the “stable at room temperature” value in [3] was 48 h.

As for `CCC(CC)COC(=O)[C@H](C)N[P@](=O)(OC[C@H]1O[C@@](C#N)(c2ccc3c(N)ncnn23)[C@H](O)[C@@H]1O)Oc1ccccc1` [Remdesivir, reference compound], the “V, bootstrap median” value in data set [1] came out at 111 L. In addition, the EC50 in data set [4] was 770 nM; in [5], 990 nM; in [2], 48 nM; with Delta it was 70 nM; in the data set with Omicron, 42 nM. In [4], the EC90 was 1760 nM. Further, the clearance in the data set “clinical” (CL, bootstrap median) is 1670 mL/min; in “clinical” (iv, CL, final model mean), 1600 mL/min; in data set [6], 207 L/h. For the same compound, in the data set on plasma protein (human), the protein binding is on record as 97%.
